According to patent US12545658B2, “Pyridine derivatives as calcium-activated chloride channel modulators” (TMEM16A LIMITED, priority 2019, dated 2026):

What was measured:
[1] = target: T1, human TMEM16A (TMEM16Aabc variant) (Homo sapiens, UniProt Q5XXA6); assay: Automated whole-cell patch clamp (QPatch) TMEM16A potentiator assay in FRT cells stably expressing human TMEM16A; assay type: cell-based; settings: for QPatch TMEM16A % Potentiation @ 370 nM: 370 nM test compound; for QPatch TMEM16A % Potentiation @ 370 nM / QPatch TMEM16A % Potentation @ 3.3 μM: percentage increase of baseline TMEM16A current; for QPatch TMEM16A % Potentation @ 3.3 μM: 3.3 μM test compound; for EC50: FRT-TMEM16A cells, whole-cell patch clamp, peak current at +70 mV, intracellular calcium at EC20; for EC50 compared with Compound B: indole compounds versus comparator Compound B; for maximum potentiation of TMEM16A compared with Compound B: versus comparator Compound B
T1 construct: human TMEM16A (TMEM16Aabc variant)
T1 sequence (Q5XXA6 1-986): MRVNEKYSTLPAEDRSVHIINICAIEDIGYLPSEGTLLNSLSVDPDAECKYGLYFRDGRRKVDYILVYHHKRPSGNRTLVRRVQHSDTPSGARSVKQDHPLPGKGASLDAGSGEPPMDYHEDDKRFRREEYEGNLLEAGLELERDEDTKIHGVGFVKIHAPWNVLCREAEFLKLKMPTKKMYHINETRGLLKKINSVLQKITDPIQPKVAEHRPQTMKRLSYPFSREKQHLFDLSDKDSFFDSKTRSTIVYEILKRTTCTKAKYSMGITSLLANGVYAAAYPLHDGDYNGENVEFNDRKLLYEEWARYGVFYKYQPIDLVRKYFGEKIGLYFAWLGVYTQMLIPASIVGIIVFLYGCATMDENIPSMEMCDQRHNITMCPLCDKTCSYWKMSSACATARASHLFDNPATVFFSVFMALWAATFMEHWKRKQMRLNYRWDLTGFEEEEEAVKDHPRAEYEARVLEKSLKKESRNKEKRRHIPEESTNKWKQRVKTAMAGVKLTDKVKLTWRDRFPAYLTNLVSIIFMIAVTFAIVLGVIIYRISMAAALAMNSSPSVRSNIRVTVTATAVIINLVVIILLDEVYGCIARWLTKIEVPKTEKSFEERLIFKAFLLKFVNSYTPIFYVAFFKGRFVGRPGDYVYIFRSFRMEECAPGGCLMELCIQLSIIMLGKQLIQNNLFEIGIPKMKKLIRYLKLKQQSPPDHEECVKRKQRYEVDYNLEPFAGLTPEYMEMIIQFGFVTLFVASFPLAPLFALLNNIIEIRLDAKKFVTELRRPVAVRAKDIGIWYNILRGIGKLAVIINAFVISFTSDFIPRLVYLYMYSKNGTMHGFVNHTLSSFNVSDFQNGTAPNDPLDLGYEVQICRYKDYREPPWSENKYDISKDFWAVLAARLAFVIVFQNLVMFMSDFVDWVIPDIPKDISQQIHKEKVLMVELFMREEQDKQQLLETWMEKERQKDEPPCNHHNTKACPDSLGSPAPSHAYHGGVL
Description: Fisher rat thyroid (FRT) cells stably expressing human TMEM16A (TMEM16Aabc variant; Dr Luis Galietta, Insituto Giannina, Italy) were cultured in T-75 flasks in Hams F-12 media with Coon's modification (Sigma) supplemented with 10% (v/v) foetal bovine serum, penicillin-streptomycin (10,000 U/mL/10000 μg/mL), G-418 (750 μg/mL), L-glutamine (2 mM) and sodium bicarbonate solution (7.5% v/v). At ˜90% confluence cells were harvested for experiments by detachment with a 2:1 (v/v) mixture of Detachin (BMS Biotechnology) and 0.25% (w/v) trypsin-EDTA.
FRT-TMEM16A cells were whole-cell patch clamped using an automated planar patch clamp system (Qpatch, Sophion). Briefly, once high resistance (GOhm) seals were established between the cells and the planar recording array the patch was ruptured using suction pulses to establish the whole-cell recording configuration of the patch clamp technique. The assay employed the following solutions (all reagents Sigma): Intracellular solution (mM): N-methyl-D-glucamine 130, CaCl2 18.2, MgCl2 1, HEPES 10, EGTA 10, BAPTA 20, Mg-ATP 2, pH 7.25, 325 mOsm with sucrose.
Extracellular solution (mM): N-methyl-D-glucamine 130, CaCl2 2, MgCl2 1, HEPES 10, pH 7.3, 320 mOsm with sucrose.
The intracellular solution buffers intracellular calcium at levels required to give ˜20% activation of the maximal TMEM16A mediated current (EC20 for calcium ions). Cells were voltage clamped at a holding potential of −70 mV and a combined voltage step (to +70 mV)/ramp (−90 my to +90 mV) was applied at 0.05 Hz. After a period of current stabilisation test compounds, solubilised in 100% (v/v) DMSO and subsequently diluted into extracellular solution, were applied to generate a cumulative concentration response curve. Each concentration of test compound was incubated for 5 minutes before addition of the next concentration. After the final concentration was tested a supramaximal concentration of either a known active positive modulator or the TMEM16A inhibitor, CaCCinhA01 (Del La Fuente et al, 2008) was added to define the upper and lower limits of the assay.
Compound activity was quantified by measuring the increase in current upon compound addition and expressing this as a percentage increase of baseline TMEM16A current level.
In FIG. 1, IBL equals baseline current, I[#1] equals the peak current during test compound concentration 1 incubation period and so on.
Peak TMEM16A current at +70 mV was plotted as a function of time over the assay period. Baseline current (IBL) was measured after a period of stabilisation. The increase in current for each compound addition was determined by taking the peak current during the incubation period and subtracting the current from the previous recording period and then expressing this as a percentage of the baseline current (% potentiation). For test compound concentration 1 in FIG. 1 this is: (I[#1]−IBL/IBL)×100 For each additional concentration tested the increase in current was determined by subtracting the current from the previous incubation period and normalising the baseline value—for test concentration 2 in FIG. 1 this is: (I[#2]−I[#1])/IBL)×100 The values for each test concentration were plotted as a cumulative function of concentration eg. for test concentration two this would be the sum of the peak changes measured during concentration one plus concentration two.

[2] = Microsomal stability (human microsomes); assay type: in vitro ADME; settings: pH 7.4, 1 μM compound, 0.5 mg/mL protein, 1 mM NADPH, 37° C., read-out: Human Microsome Clint
Description: Microsomes (human) were obtained from Bioreclamation.
All Test and reference control compounds (raloxifene, diclofenac, terfenadine, propranolol, dextromethorphan and metoprolol) were dissolved to create a 100 μM stock (final concentrations; 91.5% Acetonitrile: 8.5% DMSO). Final test compound concentration in incubation was 1 μM (<0.1% DMSO).
Solution 1: 17.4 g potassium phosphate dibasic anhydrous (K2HPO4, 0.1 M) dissolved in 1 L deionised water. Solution 2: 13.6 g potassium phosphate monobasic anhydrous (KH2PO4, 0.1 M) dissolved in 1 L deionised water. pH7.4 with 2 mM magnesium chloride. NADPH (10 mM) is prepared in deionised water. Microsomes (all species) were removed from the −80° C. thawed at 37° C. Microsomes were diluted in assay buffer to achieve a final protein concentration of 0.5 mg/mL and 1 mM NADPH.
The following procedure was completed on a Perkin Elmer Janus robotic platform in 96 well format: The microsomal incubation plate was transferred to a heater shaker at 300 rpm and solution heated to 37° C. for 10 min pre-warm. A no co-factor control at 0 and 45 min and one replicates of each test compound was included in every assay. Microsomes were incubated at 37° C., on a shaker set at 300 rpm throughout the assay. […]

SMILES | QPatch TMEM16A % Potentiation @ 370 nM [1] [%] | QPatch TMEM16A % Potentation @ 3.3 μM [1] [%] | microsomal CLint at 1 μM [2] [µL/min/mg] | EC50 [1] [µM] | EC50 compared with Compound B [1] | maximum potentiation of TMEM16A compared with Compound B [1]
C#CC(C)(C)NC(=O)c1cc(NC(=O)Cc2cccc3cc[nH]c23)ccn1 [Compound B, reference compound] | 42 | 64 | 46 |  |  | 
CC(C)(C)NC(=O)c1cc(NC(=O)Cc2cc3[nH]ncc3cc2Cl)ccn1 [Example 7.1, N-tert-Butyl-4-[[2-(5-chloro-1H-indazol-6-yl)acetyl]amino]pyridine-2-carboxamide] | 47 | 82 |  | 0.27 |  | 
CC(C)(C)NC(=O)c1cc(NC(=O)Cc2cc(Cl)c3cn[nH]c3c2)ccn1 [Example 7.2, N-tert-Butyl-4-[[2-(4-chloro-1H-indazol-6-yl)acetyl]amino]pyridine-2-carboxamide] | 102 | 142 |  | 0.14 |  | 
CC(C)(C)NC(=O)c1cc(NC(=O)Cc2ccc3c(C(F)(F)F)n[nH]c3c2)ccn1 [Example 8, N-tert-Butyl-4-[[2-[3-(trifluoromethyl)-1H-indazol-6-yl]acetyl]amino]pyridine-2-carboxamide] | 65 | 98 |  | 0.21 |  | 
O=C(Cc1ccc2c(C(F)(F)F)n[nH]c2c1)Nc1ccnc(C(=O)NC2(C(F)(F)F)CC2)c1 [Example 8.1, N-[1-(Trifluoromethyl)cyclopropyl]-4-[[2-[3-(trifluoromethyl)-1H-indazol-6-yl]acetyl]amino]pyridine-2-carboxamide] | 97 | 267 |  | 0.6 |  | 
CC(C)c1n[nH]c2cc(CC(=O)Nc3ccnc(C(=O)NC(C)(C)C)c3)ccc12 [Example 9, N-tert-Butyl-4-[[2-(3-isopropyl-1H-indazol-6-yl)acetyl]amino]pyridine-2-carboxamide] | 113 | 200 |  | 0.28 |  | 
CC(O)(c1n[nH]c2cc(CC(=O)Nc3ccnc(C(=O)NC4(C(F)(F)F)CC4)c3)ccc12)C(F)(F)F (centres unmarked) [Example 12, 4-[[2-[3-(2,2,2-Trifluoro-1-hydroxy-1-methyl-ethyl)-1H-indazol-6-yl]acetyl]amino]-N-[1-(trifluoromethyl)cyclopropyl]pyridine-2-carboxamide] | 204 | 338 |  | 0.24 |  | 
CC(C)(NC(=O)c1cc(NC(=O)Cc2ccc3cc[nH]c3c2)ccn1)C(F)(F)F [Example 13, 4-[[2-(1H-Indol-6-yl)acetyl]amino]-N-(2,2,2-trifluoro-1,1-dimethyl-ethyl) pyridine-2-carboxamide] | 47 | 93 |  | 0.41 |  | 

Results, then the molecule that gave them:

QPatch TMEM16A % Potentiation @ 370 nM [1] [%] | QPatch TMEM16A % Potentation @ 3.3 μM [1] [%] | microsomal CLint at 1 μM [2] [µL/min/mg] | EC50 [1] [µM] | EC50 compared with Compound B [1] | maximum potentiation of TMEM16A compared with Compound B [1] | SMILES
117 | 180 |  | 0.22 |  |  | O=C(Cc1ccc2cn[nH]c2c1)Nc1ccnc(C(=O)NC2(C(F)(F)F)COC2)c1 [Example 11.3, 4-[[2-(1H-Indazol-6-yl)acetyl]amino]-N-[3-(trifluoromethyl)oxetan-3-yl]pyridine-2-carboxamide]
85 | 132 |  | 0.21 |  |  | O=C(Cc1ccc2cn[nH]c2c1)Nc1ccnc(C(=O)NC2(C(F)F)CC2)c1 [Example 11.4, N-[1-(Difluoromethyl)cyclopropyl]-4-[[2-(1H-indazol-6-yl)acetyl]amino] pyridine-2-carboxamide]
41 | 61 |  | 0.14 |  |  | O=C(Cc1ccc2cn[nH]c2c1)Nc1ccnc(C(=O)NC23CC(F)(C2)C3)c1 [Example 11.5, N-(3-Fluoro-1-bicyclo[1.1.1]pentanyl)-4-[[2-(1H-indazol-6-yl)acetyl]amino]pyridine-2-carboxamide]
113 | 115 | 199 | 0.05 | lower EC50 values than Compound B | improved maximum potentiation of TMEM16A | CC1(NC(=O)c2cc(NC(=O)Cc3ccc4cc[nH]c4c3)ccn2)CC(F)(F)C1 [Example 13.1, N-(3,3-Difluoro-1-methyl-cyclobutyl)-4-[[2-(1H-indol-6-yl)acetyl]amino] pyridine-2-carboxamide]
98 | 134 |  | 0.13 | lower EC50 values than Compound B | improved maximum potentiation of TMEM16A | N#CC1(NC(=O)c2cc(NC(=O)Cc3ccc4cc[nH]c4c3)ccn2)CCOCC1 [Example 13.2, N-(4-Cyanotetrahydropyran-4-yl)-4-[[2-(1H-indol-6-yl)acetyl]amino] pyridine-2-carboxamide]
